Structures can show the parent of a compound that is named as a salt.

The target of the first assay is LsrK (Salmonella typhimurium, UniProt Q8ZKQ6). Description: biochemical. It counts as biochemical, S. typhimurium.
Sequence of LsrK (Q8ZKQ6 whole entry): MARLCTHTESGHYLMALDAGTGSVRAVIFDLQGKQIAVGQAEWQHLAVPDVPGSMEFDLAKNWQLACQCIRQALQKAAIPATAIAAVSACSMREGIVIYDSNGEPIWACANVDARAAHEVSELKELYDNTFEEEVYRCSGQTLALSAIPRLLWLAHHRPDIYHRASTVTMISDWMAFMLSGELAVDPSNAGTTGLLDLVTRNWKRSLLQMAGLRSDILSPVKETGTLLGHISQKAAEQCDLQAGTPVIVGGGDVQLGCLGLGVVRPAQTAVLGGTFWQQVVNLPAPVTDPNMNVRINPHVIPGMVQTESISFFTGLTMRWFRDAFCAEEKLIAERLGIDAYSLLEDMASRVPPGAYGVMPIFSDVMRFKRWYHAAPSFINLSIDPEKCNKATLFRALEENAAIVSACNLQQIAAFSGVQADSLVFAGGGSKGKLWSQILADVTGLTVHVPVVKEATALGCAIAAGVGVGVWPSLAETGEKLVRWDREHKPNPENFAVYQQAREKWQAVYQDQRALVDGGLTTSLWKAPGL
Conditions: not given
The term inhibition denotes the change of the read-out against control, counted positive when it falls. With `CC1(C)S[C@@H]2[C@H](NC(=O)[C@H](N)c3ccccc3)C(=O)N2[C@H]1C(=O)O` [AMPICILLIN SODIUM], the inhibition at 50 µM was determined as 1%.

For `O=c1c(O)c(-c2ccc(O)c(O)c2)oc2cc(O)cc(O)c12` [QUERCETIN], the inhibition at 50 µM was determined as 22%. Same read-out and setting: the figure for `O=C1C(O)=C([C@H]2CC[C@H](c3ccc(Cl)cc3)CC2)C(=O)c2ccccc21` [ATOVAQUONE] is 1%. Still for that read-out and setting: under `CC1=C(CC(=O)O)c2cc(F)ccc2/C1=C\c1ccc([S+](C)[O-])cc1` (centres unmarked) stands 21%; under `Nc1ncnc2c1ncn2[C@@H]1O[C@H](CO)[C@@H](O)[C@@H]1O` [VIDARABINE], 0%. The same measure, in the same setting: the figure for `Cc1c(OCC(F)(F)F)ccnc1C[S+]([O-])c1nc2ccccc2[nH]1` (centres unmarked) [LANSOPRAZOLE] is 33%; for `O=C1OC(CN2CCOCC2)CN1/N=C/c1ccc([N+](=O)[O-])o1` (centres unmarked) [FURALTADONE] it is 2%. Regarding `O=C1C=CC(=O)c2c(O)cccc21` [JUGLONE], the inhibition at 50 µM turned out to be 88%. The same measure, in the same setting: the figure for `c1cncc(C2=NCCC2)c1` [MYOSMINE] is 2%; for `CC(=O)O[C@]1(C(C)=O)CC[C@H]2[C@@H]3C=C(Cl)C4=CC(=O)CC[C@]4(C)[C@H]3CC[C@@]21C` [CHLORMADINONE ACETATE] it is 1%. On the same count and under the same terms, under `COc1c2c(cc3occ(-c4ccc5c(c4)OCO5)c(=O)c13)OC(C)(C)C=C2` [METHYL ROBUSTONE] stands 1%; under `COc1cc(Cc2cnc(N)nc2N)cc(OC)c1OC` [TRIMETHOPRIM], 0%; under `C=C1CCC2C(CC2(C)C)C(=O)CCC1O` (centres unmarked) [ISOKOBUSONE], 3%. Same read-out and setting: under `CCCC1O[C@@H]2C[C@H]3[C@@H]4CCC5=CC(=O)C=C[C@]5(C)[C@H]4[C@@H](O)C[C@]3(C)[C@]2(C(=O)CO)O1` (some centres unmarked) [BUDESONIDE] stands 2%; under `COCCCOc1ccnc(C[S+]([O-])c2nc3ccccc3[nH]2)c1C` (centres unmarked) [RABEPRAZOLE SODIUM], 0%. `C1CCC(C(CC2CCCCN2)C2CCCCC2)CC1` (centres unmarked) [PERHEXILINE MALEATE]: the inhibition at 50 µM was 1%. On the same count and under the same terms, under `Cc1ccc(S(=O)(=O)NCl)cc1` [TOSYL[…]] stands 3%; under `CNCC[C@H](Oc1cccc2ccccc12)c1cccs1` [DULOXETINE HYDROCHLORIDE], 1%; under `CC(=O)OCC(=O)[C@H]1CC[C@H]2[C@@H]3CCC4=CC(=O)CC[C@]4(C)[C@H]3CC[C@]12C` [DESOXYCORTICOSTERONE ACETATE], 1%. Same read-out and setting: the figure for `c1ccc([C@H]2CN3CCSC3=N2)cc1` [LEVAMISOLE HYDROCHLORIDE] is 1%. Same read-out and setting: under `CCC[C@H](N[C@@H](C)C(=O)N1[C@H](C(=O)O)C[C@@H]2CCCC[C@@H]21)C(=O)OCC` [PERINDOPRIL ERBUMINE] stands 15%; under `CCOC(N)=O`, 0%. As to `CC(C)c1ccc2c(c1)CC[C@H]1[C@](C)(C(N)=O)CCC[C@]21C` [DEHYDROABIETAMIDE], the inhibition at 50 µM worked out at 2%. The same measure, in the same setting: under `CCN(CC)CCOC(=O)C(c1ccccc1)C1CCCCC1` (centres unmarked) [DROFENINE HYDROCHLORIDE] stands 0%; under `COC(=O)Nc1nc2ccc([S+]([O-])c3ccccc3)cc2[nH]1` (centres unmarked) [OXFENDAZOLE], 27%. Same read-out and setting: the figure for `COc1cc2nc(N3CCN(C(=O)C4COc5ccccc5O4)CC3)nc(N)c2cc1OC` (centres unmarked) [DOXAZOSIN MESYLATE] is 0%; for `CC1=C(/C=C/C(C)=C/C=C/C(C)=C/C=C/C=C(C)/C=C/C=C(C)/C=C/C2=C(C)CCCC2(C)C)C(C)(C)CCC1` [beta-CAROTENE] it is 1%; for `Clc1ccccc1CN1CCc2sccc2C1` [TICLOPIDINE HYDROCHLORIDE] it is 1%.

As to `CC(C)=CCC1=C(O)C(=O)c2ccccc2C1=O` [LAPACHOL], the inhibition at 50 µM was 1%.

Regarding `CC1CCC(NC(=O)N(CCCl)N=O)CC1` (centres unmarked) [SEMUSTINE], the inhibition at 50 µM worked out at 0%. On the same count and under the same terms, under `COc1ccc(/C=C/c2cc(O)cc(O)c2)cc1` [RESVERATROL 4'-METHYL ETHER] stands 2%; under `CCn1cc(C(=O)O)c(=O)c2cc(F)c(N3CCNC(C)C3)c(F)c21` (centres unmarked) [LOMEFLOXACIN HYDROCHLORIDE], 0%. Same read-out and setting: the figure for `CC(C)=CCCC1(C)C=Cc2c(O)c3c(c(CC=C(C)C)c2O1)OC12C(=CCCC1C(C)(C)O[C@@]2(C/C=C(\C)C(=O)O)C(=O)O)C3=O` (some centres unmarked) [[…]] is 75%; for `CC(N)C(=O)OC(C)(C)Cc1ccc(Cl)cc1` (centres unmarked) [ALAPROCLATE] it is 1%. The same measure, in the same setting: under `NCCC(=O)N[C@@H](Cc1cnc[nH]1)C(=O)O` [CARNOSINE] stands 0%; under `C[C@H]1C(=O)CC[C@@H]2[C@]1(C)CC[C@H]1[C@@]2(C)CC[C@@]2(C)[C@@H]3CC(C)(C)CC[C@]3(C)CC[C@]12C` [FRIEDELIN], 1%. `CCCCC1C(=O)N(c2ccccc2)N(c2ccccc2)C1=O` [PHENYLBUTAZONE]: the inhibition at 50 µM is 0%.

Consider `CCS(=O)(=O)CCn1c([N+](=O)[O-])cnc1C` [TINIDAZOLE], for which the inhibition at 50 µM was determined as 1%. On to `CCOC(=O)NNc1nncc2ccccc12` [TODRALAZINE HYDROCHLORIDE], for which the inhibition at 50 µM stood at 2%. Still for that read-out and setting: the figure for `Oc1cc(Cl)ccc1Oc1ccc(Cl)cc1Cl` [TRICLOSAN] is 2%. On the same count and under the same terms, the figure for `CN(C)CCC(c1ccc(Br)cc1)c1ccccn1` (centres unmarked) [BROMPHENIRAMINE MALEATE] is 1%; for `Nc1ccc(O)c(C(=O)O)c1` [MESALAMINE] it is 105%. The same measure, in the same setting: under `Cc1cc(=O)oc2cc(O)c(O)cc12` [4-METHYLESCULETIN] stands 2%.

`CC1(C)C(=O)C=C[C@]2(C)[C@H]3CC[C@@]4(C)[C@H](c5ccoc5)OC(=O)[C@H]5O[C@]54[C@]3(C)C(=O)C[C@@H]12` [DEACETOXY-7-OXOGEDUNIN]: the inhibition at 50 µM was 2%. The same measure, in the same setting: the figure for `CC(C)(C)NC(=O)[C@H]1CC[C@H]2[C@@H]3CC[C@H]4NC(=O)C=C[C@]4(C)[C@H]3CC[C@]12C` [FINASTERIDE] is 1%.

As to `Cc1noc(NS(=O)(=O)c2ccc(N)cc2)c1C` [SULFISOXAZOLE], the inhibition at 50 µM came out at 1%.

Turning to `Nc1ccc(S(=O)(=O)c2ccc(N)cc2)cc1` [DAPSONE], the inhibition at 50 µM turned out to be 0%.

As to `Oc1c(Cl)cc(Cl)c(Cl)c1Cc1c(O)c(Cl)cc(Cl)c1Cl` [HEXACHLOROPHENE], the inhibition at 50 µM is 112%.

In the case of `COc1cc(-c2coc3cc(O[C@@H]4O[C@H](CO)[C@@H](O)[C@H](O)[C@H]4O)c(OC)c(O)c3c2=O)cc(O)c1OC` [IRIDIN], the inhibition at 50 µM was 1%. Still for that read-out and setting: the figure for `Cc1cc(C)cc(OCC2CNC(=O)O2)c1` (centres unmarked) [METAXALONE] is 0%.

Take `O=C(CCCN1CCN(c2ccccn2)CC1)c1ccc(F)cc1` [AZAPERONE]: the inhibition at 50 µM worked out at 25%. The same measure, in the same setting: the figure for `COc1c2c(cc3c1OCO3)CC[N+](C)=C2` [COTARNINE CHLORIDE] is 2%; for `OCCN(CCO)c1nc(N2CCCCC2)c2nc(N(CCO)CCO)nc(N3CCCCC3)c2n1` [DIPYRIDAMOLE] it is 2%. What is called IC50 is the point on the concentration scale where inhibition reaches its midpoint. Take `CC(=O)Oc1c2c(c(CC=C(C)C)c3c1C(=O)C1=C[C@@H]4CC5C(C)(C)OC(C/C=C(\C)C(=O)O)(C4=O)[C@@]15O3)OC(C)(CCC=C(C)C)C=C2` (some centres unmarked) [ACETYL I[…]]: it took 4 µM to reach half-maximal inhibition (IC50) and the inhibition at 50 µM is 141%. `CCN1CCN(C(=O)N[C@@H](C(=O)N[C@@H]2C(=O)N3C(C(=O)O)=C(CSc4nnnn4C)CS[C@H]23)c2ccc(O)cc2)C(=O)C1=O` [CEFOPERAZONE SODIUM]: the inhibition at 50 µM was found to be 0%. Still for that read-out and setting: under `COc1c(O)cc2c(c1O)[C@@H]1O[C@H](CO)[C@@H](O)[C@H](O)[C@H]1OC2=O` [BERGENIN] stands 0%.

Staying with this assay, now noted: 50 µM.
With `CC(=O)O[C@@H]1CC2C(C)(C)[C@H](O)CC[C@]2(C)C2CC[C@@]3(C)[C@H](c4ccoc4)OC(=O)C4OC43[C@@]21C` (stereo partly drawn) [alpha-DIHYDROGEDUNOL], the “Inhibition (%)” value was determined as 1. Still for that read-out and setting: the figure for `COc1ccc(-c2coc3cc(O)cc(O)c3c2=O)cc1` [BIOCHANIN A] is 25; for `C[C@H]1O[C@H](OC2[C@@H](O)[C@@H](O)C(O)[C@H](O)[C@H]2O)[C@@H](N)C[C@@H]1N=C(N)C(=O)O.Cl` (some centres unmarked) [KASUGAMYCIN HYDROCHLORIDE] it is 1; for `C[C@@H]1[C@H](O)[C@@H](C)/C=C/C=C/CC/C=C/C=C/C=C/C=C/C(O[C@H]2O[C@H](C)[C@@H](O)[C@H](N)[C@@H]2O)CC2O[C@](O)(CC(O)C(O)CCC(O)CC(O)CC(O)CC(=O)O[C@H]1C)CC(O)C2C(=O)O` (some centres unmarked) [NYSTATIN] it is 41. The same measure, in the same setting: the figure for `COC(=O)C[C@H]1C(C)(C)[C@@H](O)[C@@H]2CC3=C4CC(O)O[C@@H](c5ccoc5)[C@]4(C)CCC3[C@@]1(C)C2=O` (stereo partly drawn) [3.16-DIDEOXYMEXICANOLIDE-3beta-DIOL] is 0; for `CC[C@H]1OC(=O)C[C@@H](O)[C@H](C)[C@@H](O[C@@H]2O[C@H](C)[C@@H](O[C@H]3C[C@@](C)(O)[C@@H](O)[C@H](C)O3)[C@H](N(C)C)[C@H]2O)[C@@H](CC=O)C[C@@H](C)C(=O)/C=C/C(C)=C/[C@@H]1CO[C@@H]1O[C@H](C)[C@@H](O)[C@@H](OC)[C@H]1OC` [TYLOSIN TARTRATE] it is 1; for `O=C(O)CCCCC1CCSS1` (centres unmarked) [THIOCTIC ACID] it is 170%. Still for that read-out and setting: the figure for NEOMYCIN SULFATE is 1.

Consider `Nc1nc[nH]n1` [3-AMINO-1.2.4-TRIAZOLE], for which the “Inhibition (%)” value is recorded as 1. `C=CC[S+]([O-])C[C@H](N)C(=O)O` (mixture of isomers) [L(+/-)-ALLIIN]: the “Inhibition (%)” value is given as 44.

`COc1ccc(/C=C/C(=O)c2cc(O)ccc2O)cc1` [2'.5'-DIHYDROXY-4-METHOXYCHALCONE]: the “Inhibition (%)” value is 102. Still for that read-out and setting: under GRAMICIDIN stands 0. As for `O=C([O-])CN(CCN(CC(=O)[O-])CC(=O)O)CC(=O)[O-].[Na+].[Na+].[Na+]` [TRISODIUM ETHYLENEDIAMINE TETRACETATE], the “Inhibition (%)” value amounted to 1.

The same assay, now with this note: read-out: IC50 against LsrK.
Regarding `COc1ccc(/C=C/C(=O)c2cc(O)ccc2O)cc1` [2'.5'-DIHYDROXY-4-METHOXYCHALCONE], the IC50 is more than 50 µM.

The values are drawn from paper PMC6627609, “Targeting Quorum Sensing: High-Throughput Screening to Identify Novel LsrK Inhibitors” (International Journal of Molecular Sciences, 2019).
